Laboratory results: US20180168161A1, “MICROPROPAGATION OF BLACK COHOSH” (North Carolina Agricultural and Technical State University, priority 2016, published 2018)

Tested on: black cohosh plantlets
Test: Rooting of black cohosh cultures and growth of the micropropagated plantlets in soil
Assay type: in vivo, Cimicifuga racemosa/Actaea racemose L.
Details: rooting 4 weeks, 60% shade
Description: All cultures described herein were transferred onto fresh media every 4 weeks. When indicated as such, the cultures were maintained in a plant tissue culture grade growth chamber under a 16-hour photoperiod (e.g. 16 hours of light per a 24 hour period) with a photo flux density of 37.6±4.8 μmol s^−1m^−2 light per day provided by cool white fluorescent tubes at 23±0.1° C., unless otherwise noted. As employed herein, MS supplemented base medium is at a pH of between about 5.4 and 5.8, supplemented with about 0.7% agar and about 3% sucrose, optionally with one or more plant growth regulators as disclosed herein. The pH of the medium is adjusted with a base, such as 1N KOH, and/or an acid, such as 1N HCl, before the agar is added. The supplemented medium is sterilized by autoclaving at about 120° C. and about 106 kPa for about 20 minutes. A first half of the cultures from Example 1B were moved to fresh MS supplemented base medium containing IBA (1.0 mg/1) and kept in a growth chamber under 16 hours light conditions per day for 4 weeks for rooting of the plantlets. See also the bottom row of FIG. 1, which refers to rooting for 4 weeks. […] A second half of the cultures from Example 1B were moved to fresh MS supplemented base medium containing NAA (0.1 mg/1) and kept in a growth chamber under 16 hours light conditions per day for 4 weeks for rooting of the plantlets. […]

## O=C(O)CCCc1c[nH]c2ccccc12 [IBA, indole-3-butyric acid]
Shoots proliferated in BA+NAA (Example 1B)
  plantlet growth in soil after rooting: grew vigorously with normal morphology
Shoots proliferated in kinetin+NAA (Example 1C)
  plantlet growth in soil after rooting: grew vigorously
